Assay results from patent publication US12129313B2, “Anti-inflammatory use of peptide” (ENLITISA (SHANGHAI) PHARMACEUTICAL CO., LTD, priority 2017, dated 2024).

Key:
TNF-α = experiment: Air pouch model: ELISA of exudate for TNF-α; type: in vivo, mice; settings: ±SD, doses and timing per Table 1
Procedure: (§1) Air pouches were produced by subcutaneous injection of sterile air (5 mL) into the intrascapular area of the mice. After three days, another injection of air (3 mL) was performed to maintain the pouches. In order to induce acute inflammation, three days after this final injection, animals received an injection of sterile carrageenan solution (CP Kelco, Taixing, Jiangsu Province, China; 1%, 0.5 mL; produced by adding 0.1 g of carrageenan powder into a beaker containing 10 mL of 0.9% saline solution and stirring). Mice were pre-treated with test samples or vehicle 1 hour before and 23 hours after the carrageenan injection into the subcutaneous air pouch. […]
(§2) Exudates were collected and volumes were quantified. The total number of cells was determined with a haematocytometer (ADVIA 2120 Hematology System, Siemens Healthineers). The exudates were centrifuged at 3000 rpm for 10 minutes at 4° C., and the supernatants were collected and stored at −20° C. for ELISA analysis using standard ELISA test kits (Biolegend™ from Dakewe Biotech Co., Beijing, China or Abcam™, Abcam (Shanghai) Trading Co. Ltd, China) and an ELISA reader (SH-1000 Hitachi, Japan) for tissue necrosis factor alpha (TNF-α), interleukin 1 beta (IL-1β), interleukin 6 (IL-6), interleukin 10 (IL-10), prostaglandin E2 (PGE2), interferon gamma (IFN-γ) and 5-hydroxytryptamine (5-HT; serotonin). […]

IL-6 = experiment: Air pouch model: ELISA of exudate for IL-6; type: in vivo, mice; settings: ±SD, doses and timing per Table 1
Procedure: (§3) Air pouches were produced by subcutaneous injection of sterile air (5 mL) into the intrascapular area of the mice. After three days, another injection of air (3 mL) was performed to maintain the pouches. In order to induce acute inflammation, three days after this final injection, animals received an injection of sterile carrageenan solution (CP Kelco, Taixing, Jiangsu Province, China; 1%, 0.5 mL; produced by adding 0.1 g of carrageenan powder into a beaker containing 10 mL of 0.9% saline solution and stirring). Mice were pre-treated with test samples or vehicle 1 hour before and 23 hours after the carrageenan injection into the subcutaneous air pouch. Animals were sacrificed 24 hours after the carrageenan injection.
Exudates were collected and volumes were quantified. […] The exudates were centrifuged at 3000 rpm for 10 minutes at 4° C., and the supernatants were collected and stored at −20° C. for ELISA analysis using standard ELISA test kits (Biolegend™ from Dakewe Biotech Co., Beijing, China or Abcam™, Abcam (Shanghai) Trading Co. Ltd, China) and an ELISA reader (SH-1000 Hitachi, Japan) for tissue necrosis factor alpha (TNF-α), interleukin 1 beta (IL-1β), interleukin 6 (IL-6), interleukin 10 (IL-10), prostaglandin E2 (PGE2), interferon gamma (IFN-γ) and 5-hydroxytryptamine (5-HT; serotonin).

C57BL/6 mice [1] = experiment: Air pouch model (carrageenan): exudate volume, pouch wall weight, exudate cell count; type: in vivo
Procedure: Healthy adult male C57BL/6 mice weighing between 20 and 30 g were supplied by Nanjing Biomedical Research Institute (NBRI) of Nanjing University, China. Prior to any experiments being conducted, mice were housed under standardized conditions (at a constant temperature or 22±2° C., with alternating 12 hour periods of light and darkness), and were fed on a standard mouse diet with water, for about a week.
General anesthesia was induced using intraperitoneal 3% chloral hydrate (Sinopharm Chemical Reagent Co., Ltd., Shanghai, China); 1 mL/10 g of body weight). The hair of the entire dorsum was shaved and depilated 1 day before sterile air injection.
as §3
The cavity was washed with 4 mL of sterile phosphate buffer solution (pH 7.4; prepared by dissolving 4 g of NaCl, 0.1 g of KCl, 1.749 g of Na2HPO4.12H2O and 0.1 g of KH2PO4 in ultrapure water, adjusting the pH to 7.4 with HCl and diluting with water to a total volume of 500 mL).
Exudates were collected and volumes were quantified. The total number of cells was determined with a haematocytometer (ADVIA 2120 Hematology System, Siemens Healthineers). The exudates were centrifuged at 3000 rpm for 10 minutes at 4° C., and the supernatants were collected and stored at −20° C. for ELISA analysis using standard ELISA test kits (Biolegend™ from Dakewe Biotech Co., Beijing, China or Abcam™, Abcam (Shanghai) Trading Co. Ltd, China) and an ELISA reader (SH-1000 Hitachi, Japan) for tissue necrosis factor alpha (TNF-α), interleukin 1 beta (IL-1β), interleukin 6 (IL-6), interleukin 10 (IL-10), prostaglandin E2 (PGE2), interferon gamma (IFN-γ) and 5-hydroxytryptamine (5-HT; serotonin).
After conducting some preliminary experiments to validate the model, an experiment was conducted in which mice were treated by administering test samples or vehicle in accordance with Table 1 below.
In Table 1, the M1-B, M2-B, M1-A and M2-A samples are MAP (Mefp-1) solutions of specified concentrations administered at different times relative to the carrageenan injection, as specified in the table. The solutions were prepared as follows. Blue mussels were harvested in the coastal area of Shandong Province, China. Mussel feet were collected, cut into small pieces and homogenized in an extraction buffer comprising 5% acetic acid in 4 mol/L of aqueous urea. The crude extracts were collected after centrifuging and then purified by liquid chromatography. The purified protein (semi-finished product; concentration 8 mg/mL; purity as measured by HPLC 91.72%; pH 4.2) was stored at 0° C. The solutions that were employed below were prepared by adding saline solution to this semi-finished product to obtain the concentrations described in Table 1.
Also in Table 1, “Test” is MAP Peptide, which was obtained from Innovagen AB, Sweden. The peptide was synthesized according to the relevant Mefp-1 amino acid sequence. The peptide powder was stored at −20° C. and dissolved in saline water at a concentration of 3.0 mg/mL, pH 5.5.
Dexamethasone (MedChemExpress, Shanghai, China) was obtained in powder form and dissolved in ultrapure water to obtain a solution with a concentration as described in Table 1.
All the substances listed in Table 1 were administrated topically by directly injecting into the air pouches.

IFN-γ = experiment: Air pouch model: ELISA of exudate for IFN-γ; type: in vivo, mice; settings: ±SD, doses and timing per Table 1
Procedure: as §1, §2

C57BL/6 mice [2] = experiment: Air pouch model: histology scoring of pouch wall (HE stained slices); type: in vivo; parameters: key to Inflammation score / Edema Score / Motility score: 1 = mild, 2 = moderate, 3 = severe
Procedure: as §3
Skin biopsies were taken from the air pouches. A part of the biopsy was fixed in formalin (produced by adding ultra pure water to 50 mL of a 40% formaldehyde solution (Nanchang Rain Dew Experimental Equipment Co., Ltd., Nanchang, […] Provence, China) up to a total volume of 500 mL) and analyzed by histological embedding in paraffin wax, sectioning and staining.
The histological specimens were analysed and an inflammation score, a motility score, an edema score and […] were estimated as follows.
The HE stained slices were observed under an optical microscope and were scored (1, 2 or 3 points) according to the perceived inflammation level (in cases showing only a small amount of inflammatory cells scattered in the area—1 point (mild); in cases where many inflammatory cells were observed—2 points (moderate); and, in cases with diffuse infiltration—3 points (severe)). A similar scoring system was employed for edema levels (3 points for most severe and 1 point for mild) after overall observation. Motility scores represented the density of neutrophils, which employed the same methodology as that employed for inflammatory cells.

[3] = histological description in words

## C[C@@H]1C[C@H]2[C@@H]3CCC4=CC(=O)C=C[C@]4(C)[C@@]3(F)[C@@H](O)C[C@]2(C)[C@@]1(O)C(=O)CO [Positive, Dexamethasone, reference compound]
TNF-α
  TNF-α: 65.08 ± 7.70
IL-6
  IL-6: 428.05 ± 267.27
C57BL/6 mice [1]; air pouch exudate, doses and timing per Table 1
  Leukocyte (total cell count and classification): 3.49e+06 mL⁻¹
C57BL/6 mice [1]; mean ± SD, 24 hours after carrageenan, doses and timing per Table 1
  Pouch Wall Weight: 0.63 ± 0.09 g
C57BL/6 mice [1]; mean ± SD, 24 hours after carrageenan, injected into air pouch, per mouse: Positive 200 μg, M1-B/M1-A/Test 1.5 mg, M2-B/M2-A 4.5 mg, timing 1 hour (Positive, -B, Test) or 6 hours (-A), Table 1
  Exudate volume: 3.3 ± 0.15 mL
IFN-γ
  IFN-γ: 388.83 ± 130.02
C57BL/6 mice [2]; density of neutrophils, 1 to 3 points, doses and timing per Table 1
  Motility score: 0.67
C57BL/6 mice [2]; [3]
  chronic inflammatory cell infiltration of the pouch wall: moderate chronic inflammatory cell infiltration
  edema of the pouch wall: moderate interstitial edema
  neutrophil infiltration of the pouch wall: a small amount of neutrophil infiltration
C57BL/6 mice [2]; pouch wall histology, 1 mild to 3 most severe, doses and timing per Table 1
  Edema Score: 1.67
C57BL/6 mice [2]; pouch wall histology, 1 mild to 3 severe, doses and timing per Table 1
  Inflammation score: 1.83
C57BL/6 mice [2]; sum of inflammation, edema and motility scores
  Sum: 4.17
